Patent publication US20080171710A1, “The Redox/Fyn/c-Cbl Pathway” (priority 2007, published 2008)
Read-outs that look alike come from different tables or passages of the source.

Columns and labels:
[1] = test system: O-2A/OPCs; assay: Cell death of O-2A/OPCs on exposure; type: cell-based, rat
Protocol: To generate sufficient numbers of cells for biochemical analysis, cells, were expanded through one to two passages in PDGF+FGF-2 before replating in the presence of PDGF alone. When cells achieved approximately 50% confluence, MeHg, Pb, or paraquat was added to their medium at concentrations indicated. Doses for the toxicants were chosen on the basis of dose-response curves to identify sub-lethal exposure levels, as a reflection of blood and brain toxicant levels of these compounds and, where applicable, on the basis of previous reports. All toxicant concentrations examined were confirmed to cause death of less than 5% of cells over the time course of the experiment.

[2] = 14 mo of age, cited from earlier work
[3] = test system: O-2A/OPCs; assay: Intracellular ROS / redox state measurement; type: cell-based, rat; details: O-2A/OPCs in PDGF; MeHg, exposure levels as low as 20 nM
Protocol: Cells were plated in 96-well microplates and grown to about 60% continence. […] Cells were then washed once with HBSS and growth medium to remove free probe. Then, fresh growth medium was added and a baseline fluorescence reading was taken prior to treatment. For NAC pre-treatment. […] Fluorescence was measured in a Wallac 1420 Victor2 multilabel counter (PerkinElmer) using excitation and emission wavelengths of 485 nm and 535 nm, respectively, at different time courses as indicated in the figures. Results are presented as the value change from baseline by the formula (Ftexp−Ftbase)/Ftbase normalized with the control group, where Ftexp=fluorescence at any given time during the experiment in a give well and Ftbase=baseline fluorescence of the same well.

[4] = Brain mercury levels in offspring after maternal drinking water exposure; type: in vivo, mice
Protocol: Six-week-old female SJL mice were treated with MeHg in their drinking water at a concentration of 100 or 250 ppb for 30-60 d prior to mating, and then throughout pregnancy and gestation. This is a level of treatment that is 75%-90% below levels generally considered to be low to moderate and is below levels that have been associated with gross defects in adult or developing animals (e.g., [69-73]).
In the present study, exposure of female mice to MeHg in their drinking water at a concentration of 250 ppb prior to conception, and maintenance of this exposure during suckling, was associated with brain mercury levels in the offspring (examined at P.14) of 50 ng/g, a fall that was precisely in agreement with predictions based on prior studies on the fall of mercury levels occurring during this period in suckling mice. […] The exposure levels of 100 and 250 ppb are 75%-90% below what has otherwise been considered to be low-dose exposure in mice.

[5] = test system: EGFR; assay: EGFR levels in brain tissue after developmental exposure; type: in vivo, SJL mice; details: 100 or 250 ppb MeHg in maternal drinking water; 7 and 21 d after birth
Text: (§1) Anti-phosphorylated Erk monoclonal, anti-Erk monoclonal, anti-TrkC polyclonal anti-Fyn polyclonal, anti-EGFR polyclonal, anti-c-Met polyclonal, anti-phospho-tyrosine monoclonal, and anti-PDGFRα polyclonal antibodies were obtained from Santa Cruz Biotechnology (Santa Cruz, Calif., United States). Anti-c-Cbl monoclonal antibody was obtained from BD PharMingen (San Diego, Calif., United States). Anti-phosphorylated Akt monoclonal and anti-Akt polyclonal antibodies were obtained from Cell Signaling Technology (Beverly, Mass., United States). Anti-phosphorylated PDGPRα polyclonal antibody was obtained from Biosource (Carlsbad, Calif., United States). The cell culture samples were collected and lysed in RAPI buffer, whereas dissected tissue samples were sonicated in RAPI buffer. Samples were resolved on SDS-PAGE gels and transferred to PVDF membranes (PerkinElmer Life Science. Wellesley, Mass., United States), After being blocked in 5% skim milk in PBS containing 0.1% Tween 20, membranes were incubated with a primary antibody, followed by incubation with an HRP-conjugated secondary antibody (Santa Cruz Biotechnology). Membranes were visualized using Western Blotting Luminol Reagent (Santa Cruz Biotechnology). […]

[6] = test system: PDGFRα; assay: PDGFRα levels in brain tissue after developmental exposure; type: in vivo, SJL mice; details: 100 or 250 ppb MeHg in maternal drinking water; cerebellum, hippocampus, corpus callosum; 7 and 21 d after birth
Text: as §1

[7] = test system: cancer cells; assay: Cancer cell viability (MTT assays), FIG. 22; type: cell-based; details: TMX 1-50 μM, 48 hours
[8] = test system: MDA-MB-231 cell; assay: MDA-MB-231 cell division by BrdU incorporation; type: cell-based; details: NAC 1 mM or PP1 200 nM with 20 μM tamoxifen, 48 hours
Protocol: It has been reported that c-Cbl induced down-regulation of EGFR is disabled in cancer cells (Hirsch DS, Shen. Y, Wu WJ, (2006) Cancer Res. Apr 1;66(7):3523-30). Thus, growth and motility inhibition of breast cancer cells by EGFR degradation is correlated with inaetivation of Cdc42. […] Cells were cultured in phenol red-free growth media and exposed to TMX (0, 1 μM, 10 μM, 20 μM and 50 μM) for 48 hours, with or without 1 mM NAC. In FIG. 22C. MDA-MB-231 cell division was analyzed by BrdU incorporation analysis. […] Percentage of Brdu+ cells from DAPI+ cells was determined in each sample.

Compound | cell death at the concentrations used ([1]; MeHg at lower concentrations (not above 50 nM), 1 μM Pb, 5 μM paraquat) | exposure level associated with significant lethality ([1]; O-2A/OPCs) | brain levels of MeHg ([2]; 1 ppm in drinking water from conception) [mg/kg] | brain levels of MeHg ([2]; 3 ppm in drinking water) [mg/kg] | cells more oxidized (intracellular redox state) [3] | brain mercury in offspring ([4]; 100 ppb MeHg in maternal drinking water) | brain mercury levels in the offspring ([4]; 250 ppb MeHg in maternal drinking water, examined at P14) [ng/g] | levels of EGFR in brain [5] | levels of PDGFRα in brain [6] | effect on TMX effects on cancer cells [7] | rescue from tamoxifen effect on cell division [8]
[CH3][Hg][Cl] [MeHg, methylmercury] | little or no cell death | above 50 nM | 1.20 | 3.66 | approximately 20% | below the levels of detection | 50 | clear and significant reductions | clear and significant reductions | – | –
CC(=O)N[C@@H](CS)C(=O)O [NAC, N-acetyl-L-cysteine] | – | – | – | – | – | – | – | – | – | not blocked | did not result in any rescue effect
